Assay results: US8343892B2 (priority 2003, dated 2013)

Test system: Phytophthora infestans
Type: in vivo
Details: tomato (Marmande), 48 h preventive, assessed 5 days after contamination; lower line = chlorothalonil dose (in mixture or alone)

N#Cc1c(Cl)c(Cl)c(Cl)c(C#N)c1Cl [Chlorothalonil, tetrachloroisophthalonitrile]
ED70, Practical doses for 70% efficacy: dose of chlorothalonil: 16.1 mg/L | ED90, Practical doses for 90% efficacy: dose of chlorothalonil: 36.7 mg/L
